Test results as given in patent EP0326331B1, “Substituted quinolines and cinnolines” (Dow AgroSciences LLC, priority 1988, dated 1989).

Columns and labels:
Assay type in all cases: in vivo
[1] = test system: Puccinia recondita tritici (leaf rust); assay: Test 1 greenhouse foliar spray screen, leaf rust on wheat; settings: disease control rating, foliar spray on wheat, 400 ppm (+++ at 100 ppm)
[2] = test system: Cercospora beticola (leaf spot); assay: Test 1 greenhouse foliar spray screen, leaf spot on sugar beet; settings: disease control rating, foliar spray on sugar beet, 400 ppm (+++ at 100 ppm)
[3] = test system: Venturia inaequalis (apple scab); assay: Test 1 greenhouse foliar spray screen, apple scab on apple seedling; settings: disease control rating, foliar spray on apple seedling, 400 ppm (+++ at 100 ppm)
[4] = test system: southern armyworm (Spodopetra eridania Cramer); assay: Mite/insect screen, SAW; settings: percent mortality, SAW; for mortality at 200 ppm / mortality at 400 ppm: Spodoptera eridania, read-out: SAW RESULTS %; for mortality at 400 ppm: SM & MA RATE 400 PPM
Procedure, shortened: (§1)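 Compounds dissolved in acetone/alcohol (50:50) with TOXIMUL R and S emulsifiers, diluted in water to test concentrations, and sprayed to runoff on both leaf surfaces at 10 psi, then dried 1 h. For armyworm, excised treated leaves were offered to larvae; percent mortality scored after standard exposure periods.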

[5] = test system: corn rootworm; assay: Mite/insect screen, CRW; settings: percent mortality; for mortality at 12 ppm / mortality at 24 ppm: read-out: CRW RESULTS %; for mortality at 24 ppm: CRW RATE 24.00 PPM
Procedure, shortened: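 Compounds dissolved in 50:50 acetone/alcohol with TOXIMUL R and S emulsifiers (23 and 13 g/L), then diluted in water to the stated test concentrations. Percent mortality of corn rootworm scored after standard exposure periods.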

[6] = test system: Erysiphe graminis tritici (powdery mildew); assay: Test 1 greenhouse foliar spray screen, powdery mildew on wheat; settings: disease control rating, foliar spray on wheat, 400 ppm (+++ at 100 ppm)
[7] = test system: Pseudoperonospora cubensis (downy mildew); assay: Test 1 greenhouse foliar spray screen, downy mildew on squash; settings: disease control rating, foliar spray on squash, 400 ppm (+++ at 100 ppm)
[8] = test system: melon aphids (Aphis gossypii Glover); assay: Mite/insect screen, MA; settings: percent mortality, SAW; for mortality at 200 ppm / mortality at 400 ppm: Aphis gossypii, read-out: MA RESULTS %; for mortality at 400 ppm: SM & MA RATE 400 PPM
Procedure, shortened: as §1

[9] = test system: Pyricularia oryzae (rice blast); assay: whole plant or invertebrate; settings: for RICE BLAST: disease control rating, foliar spray on rice, 400 ppm (+++ at 100 ppm)
[10] = test system: Twospotted spider mites (Tetranychus urticae Koch); assay: Mite/insect screen, SM; settings: for mortality at 200 ppm / mortality at 400 ppm: Tetranychus urticae, read-out: SM RESULTS %; for mortality at 400 ppm: SM & MA RATE 400 PPM
Procedure, shortened: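 Compounds dissolved in 50:50 acetone/alcohol containing sulfonate/nonionic emulsifier blends, then diluted with water to the indicated concentrations. Leaves sprayed on both surfaces to runoff at 10 psi and dried one hour. Percent mortality scored after standard exposure periods.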

[11] = test system: Botrytis cinerea (gray mold); assay: Test 1 greenhouse foliar spray screen, gray mold on grape berries; settings: disease control rating, spray on grape berries, 400 ppm (+++ at 100 ppm)
[12] = test system: Septoria tritici (leaf blotch); assay: Test 1 greenhouse foliar spray screen, leaf blotch on wheat; settings: disease control rating, foliar spray on wheat, 400 ppm (+++ at 100 ppm)
[13] = percent mortality, SAW, SM & MA RATE 200 PPM
[14] = summary statement in the description

SMILES	LEAF RUST [1]	LEAF SPOT [2]	APPL SCAB [3]	mortality at 200 ppm ([4]; SM & MA RATE 200 PPM) [%]	mortality at 400 ppm [4] [%]	mortality at 12 ppm ([5]; CRW RATE 12.00 PPM) [%]	mortality at 24 ppm [5] [%]	POWD MDEW [6]	DOWN MDEW [7]	mortality at 200 ppm ([8]; SM & MA RATE 200 PPM) [%]	mortality at 400 ppm [8] [%]	RICE BLAST [9]	mortality at 200 ppm [10, 13] [%]	mortality at 400 ppm ([10]; percent mortality, SAW) [%]	GRAY MOLD [11]	LEAF BLOT [12]	further results
FC(F)(F)c1cccc(CCNc2ccnc3cc(Cl)ccc23)c1 [Example 107, 7-chloro-N-[2-[3-(trifluoromethyl)phenyl]ethyl]-4-quinolinamine]	+ (20-89% control at 400 ppm)	- (0-19% control at 400 ppm)	- (0-19% control at 400 ppm)	0	0	0	0	++ (90-100% control at 400 ppm)	+++ (90-100% control at 100 ppm)	0	0	+ (20-89% control at 400 ppm)	0	0	- (0-19% control at 400 ppm)	- (0-19% control at 400 ppm)	
Fc1cccc2c(NCCc3cccc(Br)c3)ccnc12 [Example 108, N-[2-(3-bromophenyl)ethyl]-8-fluoro-4-quinolinamine]	++ (90-100% control at 400 ppm)	- (0-19% control at 400 ppm)	- (0-19% control at 400 ppm)	0		0		+ (20-89% control at 400 ppm)	+ (20-89% control at 400 ppm)	0		+ (20-89% control at 400 ppm)	0		- (0-19% control at 400 ppm)	+++ (90-100% control at 100 ppm)	
CC(C)(C)c1ccc(CCNc2ccnc3c(F)cccc23)cc1 [Example 111, N-[2-[4-(t-butyl)phenyl]ethyl]--8-fluoro-4-quinolinamine]	+++ (90-100% control at 100 ppm)	- (0-19% control at 400 ppm)	- (0-19% control at 400 ppm)	20	20	0	0	+ (20-89% control at 400 ppm)	+++ (90-100% control at 100 ppm)	0	0	++ (90-100% control at 400 ppm)	90	80	- (0-19% control at 400 ppm)	+++ (90-100% control at 100 ppm)	activity against rice blast [9, 14]: particularly excellent activity; activity as miticides [10, 14]: particularly excellent activity
Fc1cccc2c(NCCc3ccc(-c4ccccc4)cc3)ccnc12 [Example 113, N-[2-(1,1-biphenyl)-4-yl-ethyl]-8-fluoro-4-quinolinamine]	+++ (90-100% control at 100 ppm)	- (0-19% control at 400 ppm)	- (0-19% control at 400 ppm)	100	70	0	100	+ (20-89% control at 400 ppm)	+++ (90-100% control at 100 ppm)	0	0	+++ (90-100% control at 100 ppm)	40	0	- (0-19% control at 400 ppm)	+++ (90-100% control at 100 ppm)	
Fc1cccc2c(NCCc3ccccc3)cc(Cl)nc12 [Example 116, 2-chloro-8-fluoro-N-(2-phenylethyl)-4-quinolinamine]	+++ (90-100% control at 100 ppm)	+ (20-89% control at 400 ppm)	+ (20-89% control at 400 ppm)	0		0		- (0-19% control at 400 ppm)	+++ (90-100% control at 100 ppm)	0		+ (20-89% control at 400 ppm)	0		- (0-19% control at 400 ppm)	- (0-19% control at 400 ppm)	
O=[N+]([O-])c1ccc(CCNc2ccnc3c(F)cccc23)cc1 [Example 117, 8-fluoro-N-[2-(4-nitrophenyl)ethyl]-4-quinolinamine]	+ (20-89% control at 400 ppm)	+ (20-89% control at 400 ppm)	- (0-19% control at 400 ppm)	0		0		+ (20-89% control at 400 ppm)	+++ (90-100% control at 100 ppm)	0		+ (20-89% control at 400 ppm)	0		- (0-19% control at 400 ppm)	- (0-19% control at 400 ppm)	SAW RESULTS % ([4]; SM & MA RATE 200 PPM): 0%; CRW RESULTS % ([5]; CRW RATE 12.00 PPM): 0%; MA RESULTS % ([8]; SM & MA RATE 200 PPM): 0%; SM RESULTS % [10, 13]: 0%
Fc1cccc2c(NCCc3c(Cl)cccc3Cl)ccnc12 [Example 118, N-[2-(2,6-dichlorophenyl)ethyl]-8-fluoro-4-quinolinamine]	- (0-19% control at 400 ppm)	- (0-19% control at 400 ppm)	- (0-19% control at 400 ppm)	0		0		- (0-19% control at 400 ppm)	- (0-19% control at 400 ppm)	0		+ (20-89% control at 400 ppm)	0		- (0-19% control at 400 ppm)	- (0-19% control at 400 ppm)	
COc1cc(CCNc2ccnc3c(F)cccc23)cc(OC)c1 [Example 119, N-[2-(3,5-dimethoxyphenyl)ethyl]-8-fluoro-4-quinolinamine]	+ (20-89% control at 400 ppm)	- (0-19% control at 400 ppm)	+ (20-89% control at 400 ppm)	0		0		+ (20-89% control at 400 ppm)	++ (90-100% control at 400 ppm)	0		+ (20-89% control at 400 ppm)	0		- (0-19% control at 400 ppm)	+ (20-89% control at 400 ppm)	
c1ccc(C2CC2Nc2ccnc3ccccc23)cc1 (stereo not shown) [Example 120, N-(2-phenylcyclopropyl)-4-quinolinamine]	+ (20-89% control at 400 ppm)	+++ (90-100% control at 100 ppm)	- (0-19% control at 400 ppm)	0		0		- (0-19% control at 400 ppm)	++ (90-100% control at 400 ppm)	0		+ (20-89% control at 400 ppm)	0		- (0-19% control at 400 ppm)	- (0-19% control at 400 ppm)	
CC(=O)N(CCc1ccc(C)cc1)c1ccnc2ccc(C)cc12 [Example 122, N-[2-(4-methylphenyl)ethyl]-N-(6-methyl-4-quinolinyl)acetamide]	+ (20-89% control at 400 ppm)	- (0-19% control at 400 ppm)	- (0-19% control at 400 ppm)	0	0	0	0	- (0-19% control at 400 ppm)	++ (90-100% control at 400 ppm)	0	0	++ (90-100% control at 400 ppm)	0	0	- (0-19% control at 400 ppm)	- (0-19% control at 400 ppm)	
